Laboratory results taken from US10143688B2, “Mesylic acid salt of acylthiourea compound, crystal of the same, and process for producing these” (priority 2015, dated 2018).

Experiments:
[1] = Solid stability test (purity by liquid chromatography, XRD, TG-DTA after storage); format: physicochemical; details: 1 month at 40° C. (open system), 40° C. (humidity, 75%), or 60° C. (open system)
Procedure: An examination by liquid chromatography was made under the following test conditions.
Apparatus: Hitachi L-2455
Mobile phase A: 10 mM aqueous Na2HPO4 solution (pH, 6.5)
Mobile phase B: acetonitrile
Column: GL Science Inertsil ODS-3; 4.6×150 mm; S=5 μm
Measuring wavelength: 220 nm
(open system), 40° C. (humidity, 75%), or 60° C. (open system). Thereafter, the crystals were examined for purity by liquid chromatography. As a result, the change in purity through the test was 0.1% or less under all those conditions.

[2] = Solubility measurement (solubility measuring method of The Japanese Pharmacopoeia); details: 37° C.

SMILES: CNC(=O)c1cc2c(Oc3ccc(NC(=S)NC(=O)Cc4ccccc4)cc3F)ccnc2cc1OC.CS(=O)(=O)O [Example 1, mesylic acid salt of 4-(2-fluoro-4-(3-(2-phenylacetyl)thioureido)phenoxy)-7-methoxy-N-methylquinoline-6-carboxamide]
- change in examinations by XRD and TG-DTA [1]: no marked change
- change in purity through the test ([1]; all those conditions): ≤ 0.1%
- Solubility, Taurocholic acid ([2]; 20-mM aqueous taurocholic acid solution): 120 µg/mL
- Solubility, FeSSIF ([2]; FeSSIF): 11 µg/mL
- Solubility, Dissolution-test second liquid ([2]; dissolution-test second liquid according to The Japanese Pharmacopoeia): 1.0 µg/mL
- Solubility, Purified water ([2]; purified water): 35 µg/mL
